Experimental data: US9340819B2, “Method for detecting the presence of carbapenemase-producing bacteria in a sample” (priority 2011, dated 2016)
Converted amounts (≈) assume the structure as drawn.

Experiments:
P. rettgeri [1] = assay: MIC of carbapenem by Etest (Example 2); assay type: cell-based, Proteus rettgeri
Protocol: (§1) All strains had previously been characterized for their β-lactamase content at the molecular level. Minimum inhibitory concentration of carbapenem were determined using the Etest® (AB bioMérieux, Solna, Sweden) and results were recorded according to US guidelines (CLSI), as updated in 2011.

P. mirabilis [2] = assay: MIC of carbapenem by Etest (Example 2); assay type: cell-based, Proteus mirabilis; conditions: Plasmid mediated AmpC or chromosomal AmpC + decreased membrane permeability; P. mirabilis ACC-1, n=1
Protocol: as §1

C. freundii [3] = assay: MIC of carbapenem by Etest (Example 2); assay type: cell-based, Citrobacter freundii
Protocol: as §1

E. coli = assay: MIC of carbapenem by Etest (Example 2); assay type: cell-based, Escherichia coli
Protocol: as §1

S. marcescens = assay: MIC of carbapenem by Etest (Example 2); assay type: cell-based, Serratia marcescens
Protocol: as §1

P. stuartii [4] = assay: MIC by Etest on Mueller-Hinton agar (Example 1); assay type: cell-based; conditions: Providencia stuartii, NDM-1 + OXA-1 + CMY-6
Protocol: (§2) Prior to performing the method of the invention, susceptibility testings were performed by determining Minimum Inhibitory Concentration (MIC) values by the Etest® (AB bioMérieux; Solna, Sweden) on Mueller-Hinton agar plates at 37° C. and results of susceptibility testing were recorded according to the Clinical and Laboratory Standards Institute (CLSI) guidelines as modified in June 2010 (18). The breakpoints for imipenem are S≦1 μg/ml (susceptibility) and R≧4 μg/ml (resistant). As for those for ertapenem, they are S≦0.25 μg/ml and R≧1 μg/ml (see Tables 1 and 2).

C. freundii [5] = assay: MIC by Etest on Mueller-Hinton agar (Example 1); assay type: cell-based; conditions: Citrobacter freundii; C. freundii STE (13); NDM-1 + OXA-1 + OXA-9 + OXA-10 + CTX-M-15 + TEM-1
Protocol: as §2

P. mirabilis [6] = assay: MIC by Etest on Mueller-Hinton agar (Example 1); assay type: cell-based; conditions: Proteus mirabilis, plasmid mediated cephalosporinase ACC-1
Protocol: as §2

E. cloacae [7] = assay: MIC by Etest on Mueller-Hinton agar (Example 1); assay type: cell-based; conditions: Enterobacter cloacae
Protocol: as §2

K. pneumoniae [8] = assay: MIC by Etest on Mueller-Hinton agar (Example 1); assay type: cell-based; conditions: Klebsiella pneumoniae
Protocol: as §2

E. asburiae = assay: MIC of carbapenem by Etest (Example 2); assay type: cell-based, Enterobacter asburiae; conditions: E. asburiae IMI-2, n=1
Protocol: as §1

M. morganii = assay: MIC of carbapenem by Etest (Example 2); assay type: cell-based, Morganella morganii; conditions: Plasmid mediated AmpC or chromosomal AmpC + decreased membrane permeability; M. morganii Overexpressed cephalosporinase, n=2
Protocol: as §1

E. cloacae [9] = assay: MIC of carbapenem by Etest (Example 2); assay type: cell-based, Enterobacter cloacae
Protocol: as §1

P. stuartii [10] = assay: MIC of carbapenem by Etest (Example 2); assay type: cell-based, Providencia stuartii; conditions: P. stuartii NDM-1, n=1
Protocol: as §1

K. pneumoniae [11] = assay: MIC of carbapenem by Etest (Example 2); assay type: cell-based, Klebsiella pneumoniae
Protocol: as §1

P. rettgeri [12] = assay: MIC by Etest on Mueller-Hinton agar (Example 1); assay type: cell-based, Proteus rettgeri; conditions: Providencia rettgeri; P. rettgeri RAP (9); OXA-181 + OXA-1
Protocol: as §2

E. aerogenes = assay: MIC of carbapenem by Etest (Example 2); assay type: cell-based, Enterobacter aerogenes
Protocol: as §1

## C[C@@H](O)[C@H]1C(=O)N2C(C(=O)O)=C(S[C@@H]3CN[C@H](C(=O)Nc4cccc(C(=O)O)c4)C3)[C@H](C)[C@H]12 [ERT, ertapenem]
P. rettgeri [1]; P. rettgeri NDM-1, n=1
  MICs range: 0.5 mg/L
P. rettgeri [1]; P. rettgeri OXA-181, n=1
  MICs range: 1 mg/L
P. mirabilis [2]
  MICs range: 0.12 mg/L
C. freundii [3]; C. freundii NDM-1, n=1
  MICs range: >32 mg/L
C. freundii [3]; ESBL + decreased membrane permeability, C. freundii TEM-3, n=1
  MICs range: 8 mg/L
E. coli; E. coli IMP-1, n=2
  MICs range: 3 to 4 mg/L
E. coli; E. coli IMP-8, n=1
  MICs range: 8 mg/L
E. coli; E. coli OXA-48, n=6
  MICs range: 0.5 to 16 mg/L
E. coli; E. coli VIM-1, n=2
  MICs range: 0.38 to 1.5 mg/L
E. coli; E. coli VIM-2, n=2
  MICs range: 0.5 to 1.5 mg/L
E. coli; E. coli VIM-19, n=1
  MICs range: 16 mg/L
E. coli; ESBLs, E. coli CTX-M-1, n=1
  MICs range: 0.12 mg/L
E. coli; ESBLs, E. coli CTX-M-3, n=1
  MICs range: 0.12 mg/L
E. coli; ESBLs, E. coli CTX-M-14, n=2
  MICs range: 0.12 mg/L
E. coli; ESBLs, E. coli CTX-M-15, n=2
  MICs range: 0.12 mg/L
E. coli; ESBLs, E. coli VEB-1, n=1
  MICs range: 0.12 mg/L
E. coli; Plasmid mediated AmpC or chromosomal AmpC + decreased membrane permeability, E. coli ACC-1, n=1
  MICs range: 0.12 mg/L
E. coli; Plasmid mediated AmpC or chromosomal AmpC + decreased membrane permeability, E. coli CMY-2, n=1
  MICs range: 0.12 mg/L
E. coli; Plasmid mediated AmpC or chromosomal AmpC + decreased membrane permeability, E. coli CMY-10, n=1
  MICs range: 0.38 mg/L
E. coli; Plasmid mediated AmpC or chromosomal AmpC + decreased membrane permeability, E. coli DHA-1, n=1
  MICs range: 0.12 mg/L
E. coli; Plasmid mediated AmpC or chromosomal AmpC + decreased membrane permeability, E. coli Extended spectrum cephalosporinase, n=1
  MICs range: 0.12 mg/L
E. coli; Plasmid mediated AmpC or chromosomal AmpC + decreased membrane permeability, E. coli Overexpressed cephalosporinase, n=1
  MICs range: >32 mg/L
S. marcescens; S. marcescens IMP-1, n=2
  MICs range: >32 mg/L
S. marcescens; S. marcescens IMP-11, n=1
  MICs range: >32 mg/L
S. marcescens; S. marcescens KPC-2, n=2
  MICs range: >32 mg/L
S. marcescens; S. marcescens SME-1, n=1
  MICs range: 4 mg/L
S. marcescens; S. marcescens SME-2, n=1
  MICs range: 4 mg/L
S. marcescens; S. marcescens VIM-2, n=1
  MICs range: >32 mg/L
P. stuartii [4]
  MIC: > 32 µg/mL
C. freundii [5]
  MIC: > 32 µg/mL
P. mirabilis [6]
  MIC: 0.19 µg/mL (≈ 0.4 µM)
E. cloacae [7]; E. cloacae 2185, ESBL OXA-163
  MIC: 0.19 µg/mL (≈ 0.4 µM)
E. cloacae [7]; E. cloacae (1), KPC-2
  MIC: 6 µg/mL (≈ 12.6 µM)
E. cloacae [7]; E. cloacae (17), ESBL CTX-M-15
  MIC: 0.19 µg/mL (≈ 0.4 µM)
E. cloacae [7]; E. cloacae ARF (25), overexpression of chromosomal cephalosporinase AmpC
  MIC: 0.5 µg/mL (≈ 1.05 µM)
E. cloacae [7]; E. cloacae BLA, overexpression of chromosomal cephalosporinase AmpC
  MIC: 0.5 µg/mL (≈ 1.05 µM)
E. cloacae [7]; E. cloacae CON (26), overexpression of chromosomal cephalosporinase AmpC
  MIC: 0.75 µg/mL (≈ 1.58 µM)
E. cloacae [7]; E. cloacae IR38, NDM-1 + CTX-M-15
  MIC: > 32 µg/mL
E. cloacae [7]; E. cloacae TUR (6), OXA-48 + SHV-5
  MIC: 1 µg/mL
E. cloacae [7]; E. cloacae, ESBL VEB-1
  MIC: 0.19 µg/mL (≈ 0.4 µM)
K. pneumoniae [8]; CIP53153, K. pneumoniae CIP53153 (30), wild-type
  MIC: 0.19 µg/mL (≈ 0.4 µM)
K. pneumoniae [8]; K. pneumoniae 1 OMA (11), NDM-1 + CTX-M-15 + OXA-1 + OXA-9
  MIC: > 32 µg/mL
K. pneumoniae [8]; K. pneumoniae 2 OMA, NDM-1 + OXA-1
  MIC: > 32 µg/mL
K. pneumoniae [8]; K. pneumoniae 7 AFR, NDM-1 + OXA-1 + CTX-M-15 + CMY-6 + TEM-1
  MIC: > 32 µg/mL
K. pneumoniae [8]; K. pneumoniae 6299 (19), ESBL OXA-163
  MIC: 0.19 µg/mL (≈ 0.4 µM)
K. pneumoniae [8]; K. pneumoniae 6759 GEN, NDM-1 + CTX-M-15 + OXA-1 + OXA-9 + OXA-10 + CMY16
  MIC: 32 µg/mL
K. pneumoniae [8]; K. pneumoniae (16), ESBL CTX-M-15
  MIC: 0.19 µg/mL (≈ 0.4 µM)
K. pneumoniae [8]; K. pneumoniae BEL, OXA-48
  MIC: 4 µg/mL (≈ 8.41 µM)
K. pneumoniae [8]; K. pneumoniae BER (28), porin deficiency associated with ESBL, TEM
  MIC: 0.75 µg/mL (≈ 1.58 µM)
K. pneumoniae [8]; K. pneumoniae BIC (4), OXA-48
  MIC: 2 µg/mL (≈ 4.21 µM)
K. pneumoniae [8]; K. pneumoniae CHA (5), OXA-48 + TEM-1
  MIC: 1 µg/mL
K. pneumoniae [8]; K. pneumoniae COO (27), porin deficiency associated with ESBL, CTX-M-15 + SHV-28
  MIC: 0.75 µg/mL
K. pneumoniae [8]; K. pneumoniae DIN, NDM-1
  MIC: 32 µg/mL (≈ 67.3 µM)
K. pneumoniae [8]; K. pneumoniae EGY, OXA-48 + CTX-M-15
  MIC: 3 µg/mL
K. pneumoniae [8]; K. pneumoniae H1516-6 COL (3), KPC-2 + TEM-1 + CTXM-15
  MIC: 3 µg/mL
K. pneumoniae [8]; K. pneumoniae HOL, OXA-181 + CTX-M-15
  MIC: 1 µg/mL
K. pneumoniae [8]; K. pneumoniae IND, NDM-1 + OXA-1 + CTX-M-15
  MIC: 8 µg/mL
K. pneumoniae [8]; K. pneumoniae MAD (15), IMP-13
  MIC: 2 µg/mL (≈ 4.21 µM)
K. pneumoniae [8]; K. pneumoniae MAD, VIM-1 + CTX-M-3
  MIC: > 32 µg/mL
K. pneumoniae [8]; K. pneumoniae OMA (8), OXA-181 + CTXM-15 + OXA-1
  MIC: 2 µg/mL
K. pneumoniae [8]; K. pneumoniae RAM, OXA-48
  MIC: 2 µg/mL (≈ 4.21 µM)
K. pneumoniae [8]; K. pneumoniae SAB, NDM-1
  MIC: 8 µg/mL (≈ 16.8 µM)
K. pneumoniae [8]; K. pneumoniae UK (10), NDM-1 + CTX-M-15 + CMY-4 + OXA-1
  MIC: 32 µg/mL
E. asburiae
  MICs range: >32 mg/L
M. morganii
  MICs range: 0.12 mg/L
E. cloacae [9]; E. cloacae GES-5, n=1
  MICs range: >32 mg/L
E. cloacae [9]; E. cloacae IMP-1, n=12
  MICs range: >32 mg/L
E. cloacae [9]; E. cloacae IMP-8, n=2
  MICs range: 0.5 to 1^ mg/L
E. cloacae [9]; E. cloacae KPC-2, n=7
  MICs range: 1.5 to 32 mg/L
E. cloacae [9]; E. cloacae NDM-1, n=1
  MICs range: 16 mg/L
E. cloacae [9]; E. cloacae NMC-A, n=1
  MICs range: >32 mg/L
E. cloacae [9]; E. cloacae OXA-48, n=3
  MICs range: 0.5 to 16 mg/L
E. cloacae [9]; ESBLs, E. cloacae CTX-M-15, n=3
  MICs range: 0.12 mg/L
E. cloacae [9]; ESBLs, E. cloacae VEB-1, n=1
  MICs range: 0.12 mg/L
P. stuartii [10]
  MICs range: 0.38 mg/L
K. pneumoniae [11]; ESBL + decreased membrane permeability, K. pneumoniae SHV-2a, n=1
  MICs range: 2 mg/L
K. pneumoniae [11]; ESBL + decreased membrane permeability, K. pneumoniae SHV-28, n=1
  MICs range: 4 mg/L
K. pneumoniae [11]; ESBLs, K. pneumoniae CTX-M-3, n=1
  MICs range: 0.12 mg/L
K. pneumoniae [11]; ESBLs, K. pneumoniae CTX-M-14, n=1
  MICs range: 0.12 mg/L
K. pneumoniae [11]; ESBLs, K. pneumoniae CTX-M-15, n=3
  MICs range: 0.12 mg/L
K. pneumoniae [11]; K. pneumoniae IMP-1, n=5
  MICs range: 2 to 4 mg/L
K. pneumoniae [11]; K. pneumoniae IMP-8, n=2
  MICs range: 0.5 to 1^ mg/L
K. pneumoniae [11]; K. pneumoniae NDM-4, n=1
  MICs range: >32 mg/L
K. pneumoniae [11]; K. pneumoniae OXA-181, n=2
  MICs range: 2 to 4 mg/L
K. pneumoniae [11]; K. pneumoniae VIM-19, n=1
  MICs range: 16 mg/L
K. pneumoniae [11]; Plasmid mediated AmpC or chromosomal AmpC + decreased membrane permeability, K. pneumoniae DHA-1, n=1
  MICs range: >32 mg/L
K. pneumoniae [11]; Plasmid mediated AmpC or chromosomal AmpC + decreased membrane permeability, K. pneumoniae DHA-2, n=1
  MICs range: 0.5 mg/L
P. rettgeri [12]
  MIC: 2 µg/mL
E. aerogenes; E. aerogenes KPC-2, n=1
  MICs range: >32 mg/L
E. aerogenes; Plasmid mediated AmpC or chromosomal AmpC + decreased membrane permeability, E. aerogenes Overexpressed cephalosporinase, n=1
  MICs range: 4 mg/L
